Measurements taken from patent US4840941A, “Method for inhibiting infection of human T-cells” (Kabushiki Kaisha Ueno Seiyaku Oyo Kenkyujo, priority 1986, dated 1989).

Assays:
HTLV-III = assay: Anti-AIDS activity, infected cell rate of MT-4 cells infected with HTLV-III at 6th day; format: cell-based; conditions: for anti-AIDS virus activity: MT-4 cells, HTLV-III
Description: To MT-4 cells (30×10^4 /ml) cultured in RPMI-1640 medium containing 10% bovine serum, was inoculated HTLV-III, and the suspension was incubated at 37° C. for 1 hour to cause the adsorption of the virus. The cell:virus ratio was 500:1. The cells were then washed, and cultured with or without various doses of the test substances (same as those of Example 1) at 37° C. under 5% CO2 for 3 days, after which cell growth, viability, and percentage of infected cells were recorded. The infected cells were distinguished from the uninfected cells by indirect immuno-fluorescence method. Thus; the cultured cells were fixed with cold methanol on a slide glass, reacted with antibody to the HTLV-III-specific antigens, and further with the secondary antibody (having fluorescent label). The results are shown in FIGS. 9-29, wherein, , and show the controls without virus; , and show the infection experiments with HTLV-III. The cell growth is indicated in number of cells, the viability (%) in number of viable cells×100/number of total cells, and the infected cell rate (%) in number of fluorescent-positive cells×100/number of total cells.
In order to examine the correlation between the anti-AIDS virus activity and the molecular structure (especially, molecular weight and S-content or number of sulfate group in this case) of various test substances including those used in Examples 1-7, the anti-AIDS activities were evaluated for the various naturally occurring polysaccharides, polysaccharides having sulfate group, mucopolysaccharides, mucopolysaccharide sulfate, and mucopolysaccharide polysulfate. Further, similar experiments were carried out with various other sulfates which were synthetically obtained. The experimental procedures employed are identical to that in preceding experiments. The cultured MT-4 cells were infected with HTLV-III and the inhibitory effects of various test subsutances on the infected cell rate (number of fluorescent cell×100/ total cell, %) were determined at 6th day.

[1] = tested on: Friend leukemia virus (F-MuLV); assay: Anti-Friend leukemia virus activity, XC-plaque assay, Procedure 2; format: cell-based; conditions: for Number of plaques per dish: control 35
Description: (§1) Anti-FMuLV activity of dextram sulfate (molecular weight: 7000-8000, S-content: 17-20%) was determined by a XC-plaque assay method. BALB3T3 cells were cultured in adhesive form in a 35 mm-dish at 5×10^4 cells/dish (2 ml). After removing the culture medium, a fresh medium with or without indicating concentrations of the test substance (1 ml each) and 0.2 ml of the virus preparation were charged, and the cells were cultured overnight. On the following day, the culture media were replaced with those (2 ml) containing or not containing the above substances, the incubation was continued for three additional days to progress the infection and replication of the virus. After the removal of the medium, the further progression of viral replication was stopped by UV irradiation. To this dish, the suspension of XC-cells (2 ml) was added and cultured for three days and the plaque formation produced by the virus particle induced cell-fusion, was observed.
Procedure 1 was repeated except that after adsorption of the virus in the medium without DS, the non-adsorbed viruses were removed and the culture was carried out in the medium (2 ml) containing or not containing DS.

[2] = tested on: Friend leukemia virus (F-MuLV); assay: Anti-Friend leukemia virus activity, XC-plaque assay, Procedure 1; format: cell-based; conditions: for Number of plagues per dish: control 168
Description: as §1

MT-4 cells = assay: Cytotoxicity, proliferation and viability of MT-4 cells without virus; format: cell-based, human; conditions: no virus
Description: MT-4 cells were cultured with or without 1-100 μg/ml of each test substance which is the same as in Example 1 and 3 and the proliferation and viability of cells were recorded.
Without the virus, MT-4 cells were cultured in the same manner as in Example 4 except the test sample was heparin, and proliferation and viability of cells were recorded.

[3] = 10 μg/ml, 6th day, control 100%
[4] = 100 μg/ml, 6th day, control 100%
[5] = 10 μg/ml, 6th day, control 100%, 8640 min
[6] = 100 μg/ml, 6th day, control 100%, 8640 min
[7] = 1000 μg/ml, 6th day, control 100%

Dermatan sulfate
Infected cell (%) (HTLV-III; [3]): 100%
Infected cell (%) (HTLV-III; [4]): 80%

inulin
anti-AIDS virus activity (HTLV-III; 6th day): neither methylcellulose showed any anti-AIDS virus activities

Sodium dextran sulfate
Inhibition ([1]; DS 0.01 μg/ml): 6%
Number of plaques per dish ([1]; DS 0.01 μg/ml): 33
Inhibition ([1]; DS 0.1 μg/ml): 45%
Number of plaques per dish ([1]; DS 0.1 μg/ml): 19
Number of plaques per dish ([1]; DS 1 μg/ml): 14
Inhibition ([1]; DS 10 μg/ml): 52%
Number of plaques per dish ([1]; DS 10 μg/ml): 17
Inhibition ([1]; DS 100 μg/ml): 54%
Number of plaques per dish ([1]; DS 100 μg/ml): 16
Number of plaques per dish ([1]; DS 500 μg/ml): 0
plaque formation ([2]; 100 μg/ml of DS): not detected
inhibition of the formation of plaque ([2]; 1-100 μg/ml): ≥ 90%
Inhibition ([2]; DS 1 μg/ml): 92%
Number of plagues per dish ([2]; DS 1 μg/ml): 14
Inhibition ([2]; DS 5 μg/ml): 93%
Number of plagues per dish ([2]; DS 5 μg/ml): 12
Inhibition ([2]; DS 10 μg/ml): 93%
Number of plagues per dish ([2]; DS 10 μg/ml): 11
Inhibition ([2]; DS 50 μg/ml): 92%
Number of plagues per dish ([2]; DS 50 μg/ml): 13
Inhibition ([2]; DS 100 μg/ml): 96%
Number of plagues per dish ([2]; DS 100 μg/ml): 6
Inhibition ([2]; DS 1000 μg/ml): 100%
Number of plagues per dish ([2]; DS 1000 μg/ml): 0

methylcellulose
anti-AIDS virus activity (HTLV-III; 6th day): neither methylcellulose showed any anti-AIDS virus activities

Chitin
Infected cell (%) (HTLV-III; [3]): 100%
Infected cell (%) (HTLV-III; [4]): 100%

colominic acid
anti-AIDS virus activity (HTLV-III; 6th day): neither methylcellulose showed any anti-AIDS virus activities

.iota.-Carrageenan
Infected cell (%) (HTLV-III; [3]): 100%
Infected cell (%) (HTLV-III; [4]): 31%

Hyaluronic acid
Infected cell (%) (HTLV-III; [3]): 100%
Infected cell (%) (HTLV-III; [4]): 100%

Chondroitin-6-sulfate
Infected cell (%) (HTLV-III; [3]): 100%
Infected cell (%) (HTLV-III; [4]): 100%

dextran sulfate
anti-AIDS virus activity (HTLV-III; 6th day): particularly strong anti-AIDS virus activities

Chitin sulfate
Infected cell (%) (HTLV-III; [3]): 100%
Infected cell (%) (HTLV-III; [4]): 81%

Alginic acid sulfate
Infected cell (%) (HTLV-III; [3]): 7%
Infected cell (%) (HTLV-III; [4]): 4%
anti-AIDS virus activity (HTLV-III; 6th day): particularly strong anti-AIDS virus activities

Dextran sulfate [Dextran sulfate (molecular weight 3,500, S-content 6)]
Infected cell (%) (HTLV-III; [5]): 100%
Infected cell (%) (HTLV-III; [6]): 82%
Infected cell (%) (HTLV-III; [7]): 1%

Sodium dextran sulfate [Sodium dextran sulfate (molecular weight: 5000, S-content: 1]
Infected cell (%) (HTLV-III; 10 μg/ml, 6th day; control 100%; S-content ≈13), 8640 min): 18%
Infected cell (%) (HTLV-III; [4]): 0%
Cell number (MT-4 cells; 1 μg/ml): 123 × 10^4 cells/ml
Cell number (MT-4 cells; 10 μg/ml): 127 × 10^4 cells/ml
Viability (MT-4 cells; 10 μg/ml): 92%
Cell number (MT-4 cells; 100 μg/ml): 121 × 10^4 cells/ml
Viability (MT-4 cells; 100 μg/ml): 93%

Chondroitin
Infected cell (%) (HTLV-III; [3]): 100%
Infected cell (%) (HTLV-III; [4]): 100%

Chondroitin-4-sulfate polysulfate
Infected cell (%) (HTLV-III; [3]): 2%
Infected cell (%) (HTLV-III; [4]): 1%
anti-AIDS virus activity (HTLV-III; 6th day): particularly strong anti-AIDS virus activities

N--acetylglucosamine polysulfate
Infected cell (%) (HTLV-III; [3]): 100%
Infected cell (%) (HTLV-III; [4]): 100%
Infected cell (%) (HTLV-III; [7]): 100%

Dextran sulfate [Dextran sulfate (molecular weight 8,000, S-content ≈14)]
Infected cell (%) (HTLV-III; [5]): 25%
Infected cell (%) (HTLV-III; [6]): 0%

Glucose-polysulfate
Infected cell (%) (HTLV-III; [3]): 100%
Infected cell (%) (HTLV-III; [4]): 100%
Infected cell (%) (HTLV-III; [7]): 100%

OC[C@H]1O[C@H](OC[C@H]2O[C@H](O[C@]3(CO)O[C@H](CO)[C@@H](O)[C@@H]3O)[C@H](O)[C@@H](O)[C@@H]2O)[C@H](O)[C@@H](O)[C@H]1O [raffinose]
anti-AIDS virus activity (HTLV-III; 6th day): neither methylcellulose showed any anti-AIDS virus activities

Keratan sulfate
Infected cell (%) (HTLV-III; [3]): 100%
Infected cell (%) (HTLV-III; [4]): 60%

λ-Carrageenan
Infected cell (%) (HTLV-III; [3]): 3%
Infected cell (%) (HTLV-III; [4]): 1%
anti-AIDS virus activity (HTLV-III; 6th day): particularly strong anti-AIDS virus activities

Fucoidin
Infected cell (%) (HTLV-III; [3]): 32%
Infected cell (%) (HTLV-III; [4]): 1%

Chitosan
Infected cell (%) (HTLV-III; [3]): 100%
Infected cell (%) (HTLV-III; [4]): 100%

O=C[C@H](O)[C@@H](O)[C@H](O)[C@H](O)COS(=O)(=O)O [Glucose-6-sulfate]
Infected cell rate (% of total cells) at 10 µg/mL (HTLV-III; Human immunodeficiency virus 1, MT4, 144 h, 10 μg/ml, 6th day, control 100%): 100%
Infected cell rate (% of total cells) at 100 µg/mL (HTLV-III; Human immunodeficiency virus 1, MT4, 144 h, 100 μg/ml, 6th day, control 100%): 100%
Infected cell rate (% of total cells) at 1000 µg/mL (HTLV-III; Human immunodeficiency virus 1, MT4, 144 h, 1000 μg/ml, 6th day, control 100%): 100%

Chitosan sulfate
Infected cell (%) (HTLV-III; [3]): 1%
Infected cell (%) (HTLV-III; [4]): 1%
anti-AIDS virus activity (HTLV-III; 6th day): particularly strong anti-AIDS virus activities

Agarose
Infected cell (%) (HTLV-III; [3]): 100%
Infected cell (%) (HTLV-III; [4]): 100%

pectin
anti-AIDS virus activity (HTLV-III; 6th day): neither methylcellulose showed any anti-AIDS virus activities

Chondroitin-4-sulfate
Infected cell (%) (HTLV-III; [3]): 90%
Infected cell (%) (HTLV-III; [4]): 80%

Chondroitin-6-sulfate polysulfate
Infected cell (%) (HTLV-III; [3]): 2%
Infected cell (%) (HTLV-III; [4]): 1%
anti-AIDS virus activity (HTLV-III; 6th day): particularly strong anti-AIDS virus activities

Hyaluronic acid sulfate
Infected cell (%) (HTLV-III; [3]): 100%
Infected cell (%) (HTLV-III; [4]): 70%

κ-carrageenan [Carrageenan 20%enan 80% + λ]
Infected cell (%) (HTLV-III; [3]): 95%
Infected cell (%) (HTLV-III; [4]): 1%

Heparitin sulfate
Infected cell (%) (HTLV-III; [3]): 100%
Infected cell (%) (HTLV-III; [4]): 90%

Dextran [Dextran (molecular weight 9,000)]
Infected cell (%) (HTLV-III; [3]): 100%
Infected cell (%) (HTLV-III; [4]): 100%

Alginic acid
Infected cell (%) (HTLV-III; [3]): 100%
Infected cell (%) (HTLV-III; [4]): 100%

Sodium dextran sulfate [Sodium dextran sulfate (molecular weight: 500,000 S-content:]
Infected cell (%) (HTLV-III; 10 μg/ml, 6th day; control 100%; S-content ≈16), 8640 min): 20%
Infected cell (%) (HTLV-III; [4]): 0%
